Laboratory results from patent US8394398B2 (Abbott Laboratories, priority 1997, dated 2013).

Key:
[1] = pharmacokinetics after a single intravenous dose in cynomolgus monkey; assay type: in vivo; settings: single 2.5 mg/kg intravenous dose, blood, n=3
[2] = test system: human coronary artery smooth muscle cells (hCaSMC); test: 3H-thymidine uptake proliferation assay, hCaSMC; assay type: cell-based; settings: for effect on the antiproliferative activity of zotarolimus in hCaSMC: FIG. 12
Description: Experiments were performed to investigate interactions between zotarolimus and the corticosteroid dexamethasone. The effect of dexamethasone on the antiproliferative activity of zotarolimus in human coronary artery smooth muscle ([…]) and endothelial […] determined using an in vitro proliferation assay. The proliferation and migration of vascular smooth muscle cells into the vascular neointima is a characteristic pathologic response seen in restenotic lesions (A. Lafont and P. Libby, The smooth muscle cell: sinner or saint in restenosis and the acute coronary syndromes? […] As a result, in vitro assays which specifically measure the antiproliferative activity of candidate anti-restenotic compounds on human coronary artery smooth muscle and endothelial cells should predict potential anti-restenotic activity in vivo. The tritium incorporation assay is an accurate and sensitive method used in the art to determine cell number and proliferation. Compounds or combinations of compounds which attenuate growth factor-mediated human coronary artery smooth muscle cell […]) proliferation, as measured by the tritium incorporation assay in vitro, are candidate anti-restenotic agents. […] Cell proliferation was monitored by following incorporation of ^3H-thymidine into newly synthesized DNA of cells stimulated by serum and growth factors. Exponentially growing […] were seeded into 96-well flat bottom tissue culture plates at 5,000 cells/well (10,000 cells/well for […]). The cells were allowed to attach overnight. The growth medium was removed the following day and cells were washed twice with unsupplemented (basal) medium to remove traces of serum and growth factors. Basal medium (200 μl) was added to each well and the cells incubated in medium lacking growth factors and serum to starve and synchronize them in the G0 state. After starvation (48 hours for […] and 39 hours for […]) in medium lacking serum and growth factors, the cells were replenished with 200 μl supplemented medium in the absence or presence of drugs at the desired concentrations. […] After a 72-hour incubation period, 25 μl (1 μCi/well) of ^3H-thymidine (Amersham Biosciences) were added to each well. The cells were incubated at 37° C. for 16-18 hours to allow incorporation of ^3H-thymidine into newly synthesized DNA and the cells harvested onto 96-well plates containing bonded glass fiber filters using a cell harvester (Harvester 9600, TOMTEC). […] Controls included medium only, starved cells and cells in complete medium. Drug activity was established by determining the inhibition of ^3H-thymidine incorporation into newly synthesized DNA relative to cells grown in complete medium. […] The final IC50s are means of the 3-4 experiments. In these experiments, the x-axis represents the concentration of the drug being varied. For most of these curves that is zotarolimus alone and in combination with a fixed concentration of dexamethasone. Each graph contains a dexamethasone alone curve and a zotarolimus alone curve. The set of curves in each graph is generated by adding dexamethasone at a fixed concentration (1, 5, 10 or 25 nM) to various concentrations of zotarolimus (0, 0.04, 0.08, 0.8, 4, 8, 40 nM). Each curve represents the dose-response of zotarolimus (whose concentration is given on the x-axis) in the presence of the fixed concentration of dexamethasone given in the legend). […] The concentration eliciting a specific antiproliferative effect was determined using a 4-parameter equation (Equation 1). […]

human monocytes = test: cytokine production by LPS-stimulated human monocytes (ELISA); assay type: cell-based; settings: for MCP-1 production by human monocytes in vitro: FIG. 10; for production of TNFα and IL-6 by human monocytes: FIGS. 10 and 11; for Maximal Inhibitory Activity, IL-6 / Maximal Inhibitory Activity, MCP-1 / Maximal Inhibitory Activity, TNF: Monocytes, 24 hours
Description: (§1) Experiments were performed to determine the effects of zotarolimus, sirolimus and dexamethasone on the production of TNFα, IL-6 and MCP-1 by activated human monocytes In addition to monocytes and macrophages two other key cell types are involved in the etiology of restenosis, arterial smooth muscle and endothelial cells. These cells are activated and produce cytokines in response to TNFα. […] The activation of cytokine production by human coronary artery smooth muscle and endothelial cells following TNFα treatment was determined by measuring interleukine-8 (IL-8), MCP-1 and IL-6 production. As shown by the results of the experiments described below, the ability of these compounds to inhibit the production of cytokines supports their use in combination as anti-restenotic agents since these cytokines play a role in the development of restenosis. […] After 24 hours, the supernatants were carefully collected and TNFα, IL-6 and MCP-1 levels determined by ELISA. Primary cultures of human coronary artery endothelial and smooth muscle cells were obtained from Cambrex and maintained as described by the vendor. […] After 24 hours the supernatants were removed and replaced with media containing TNFα (5 ng/ml) in the presence and absence of various concentrations of zotarolimus, dexamethasone or sirolimus. The cells were incubated for 24 hours and the supernatants carefully removed and frozen until measurement. Cytokine levels were measured in the supernatants by sandwich ELISA.

[3] = test system: human coronary artery endothelial cells (hCaEC); test: cytokine production by TNFα-treated human coronary artery endothelial cells (ELISA); assay type: cell-based; settings: TNFα (5 ng/ml), 24 hours
Description: as §1

[4] = test system: human coronary artery smooth muscle cells (hCaSMC); test: cytokine production by TNFα-treated human coronary artery smooth muscle cells (ELISA); assay type: cell-based; settings: TNFα (5 ng/ml), 24 hours; for Maximal Inhibitory Activity, IL-6 / Maximal Inhibitory Activity, Il-8 / Maximal Inhibitory Activity, MCP-1: hCaSMC
Description: as §1

[5] = test system: human coronary artery endothelial cells (hCaEC); test: 3H-thymidine uptake proliferation assay, hCaEC; assay type: cell-based
[6] = accelerated in vitro elution from PC-1036 coated stents; assay type: physicochemical

Compound | AUC [1] [ng·h/mL] | MCP-1 production by human monocytes in vitro (human monocytes) | production of TNFα and IL-6 by human monocytes (human monocytes) | Maximal Inhibitory Activity, IL-6 (human monocytes) | Maximal Inhibitory Activity, MCP-1 (human monocytes) | Maximal Inhibitory Activity, TNF (human monocytes) | Maximal Inhibitory Activity, IL-6 [3] | Maximal Inhibitory Activity, Il-8 [3] | Maximal Inhibitory Activity, MCP-1 [3] | Maximal Inhibitory Activity, IL-6 [4] | Maximal Inhibitory Activity, Il-8 [4] | Maximal Inhibitory Activity, MCP-1 [4] | other results
COC1CC2CCC(C)C(O)(O2)C(=O)C(=O)N2CCCCC2C(=O)OC(C(C)CC2CCC(n3ccc(=O)cc3)C(OC)C2)CC(=O)C(C)C=C(C)C(O)C(OC)C(=O)C(C)CC(C)C=CC=CC=C1C (stereo not drawn) [Example 4-pyridone, 40-epi-N-[4′-pyridone]-rapamycin] | 5.59 |  |  |  |  |  |  |  |  |  |  |  | 
40-epi-N-[2′-pyridone]-rapamycin [Example 2-pyridone] | 2.55 |  |  |  |  |  |  |  |  |  |  |  | 
C=CC[C@@H]1/C=C(\C)C[C@H](C)C[C@H](OC)[C@H]2O[C@@](O)(C(=O)C(=O)N3CCCC[C@H]3C(=O)O[C@H](/C(C)=C/[C@@H]3CC[C@@H](O)[C@H](OC)C3)[C@H](C)[C@@H](O)CC1=O)[C@H](C)C[C@@H]2OC [tacrolimus] |  |  |  |  |  |  |  |  |  |  |  |  | effect on the antiproliferative activity of zotarolimus in hCaSMC ([2]; tacrolimus 100 nM): increased the IC50 of zotarolimus; effect on the antiproliferative activity of zotarolimus in hCaSMC ([2]; tacrolimus 250 nM or greater, zotarolimus 4 nM): completely blocked the activity of zotarolimus
CO[C@H]1C[C@@H]2CC[C@@H](C)[C@@](O)(O2)C(=O)C(=O)N2CCCC[C@H]2C(=O)O[C@H]([C@H](C)C[C@@H]2CC[C@@H](O)[C@H](OC)C2)CC(=O)[C@H](C)/C=C(\C)[C@@H](O)[C@@H](OC)C(=O)[C@H](C)C[C@H](C)/C=C/C=C/C=C/1C [Rapamycin] |  | dose-dependently inhibit MCP-1 production | not demonstrated | − (− indicates maximal inhibitory activity less than 50% of control) | +++ (+++ indicates maximal inhibitory activity of 75-100% of control) | − (− indicates maximal inhibitory activity less than 50% of control) | − (− indicates maximal inhibitory activity less than 50% of control) | − (− indicates maximal inhibitory activity less than 50% of control) | − (− indicates maximal inhibitory activity less than 50% of control) | − (− indicates maximal inhibitory activity less than 50% of control) | − (− indicates maximal inhibitory activity less than 50% of control) | − (− indicates maximal inhibitory activity less than 50% of control) | 
C[C@@H]1C[C@H]2[C@@H]3CCC4=CC(=O)C=C[C@]4(C)[C@@]3(F)[C@@H](O)C[C@]2(C)[C@@]1(O)C(=O)CO [Dexamethasone] |  | dose-dependently inhibit MCP-1 production | potently blocks the production of TNFα and IL-6 | +++ (+++ indicates maximal inhibitory activity of 75-100% of control) | + (+ indicates maximal inhibitory activity of 50-75% of control) | +++ (+++ indicates maximal inhibitory activity of 75-100% of control) | − (− indicates maximal inhibitory activity less than 50% of control) | − (− indicates maximal inhibitory activity less than 50% of control) | − (− indicates maximal inhibitory activity less than 50% of control) | + (+ indicates maximal inhibitory activity of 50-75% of control) | + (+ indicates maximal inhibitory activity of 50-75% of control) | + (+ indicates maximal inhibitory activity of 50-75% of control) | block of hCaSMC IL-6 production [4]: 65.7%; block of hCaSMC IL-8 production [4]: 68.4%; block of hCaSMC MCP-1 production [4]: 57.2%; IC50 ([2]; Homo sapiens, 3 h, read-out: hCaSMC IC50 Mean ± SEM): 9.3 nM; inhibition of hCaSMC proliferation ([2]; dexamethasone alone at or above 10 nM): N.D.* Not detectable: Concentrations of dexamethasone alone at or above 10 nM inhibit proliferation by greater than 50% preventing calculation of zotarolimus IC50's in these experiments.; effect on proliferation of hCaEC ([5]; FIG. 13): does not affect the proliferation of hCaEC; IC50 ([5]; Homo sapiens, Endothelial cell, 3 h, read-out: hCaEC IC50 Mean ± SEM): > 10000 nM; burst release at the beginning of elution ([6]; stent with 10 μg/mm each drug, 5 μg/mm PC-1036 topcoat, 10 mM acetate buffer pH 4.0, 1% Solutol HS 15, 37° C., 24-hour profile): slightly larger burst release at the beginning than zotarolimus; effect on the elution profile of zotarolimus ([6]; zotarolimus alone vs in the presence of dexamethasone, same conditions): little effect on the elution profile of zotarolimus
